Tests used:
[1] = system: CTG-0241 (human osteosarcoma) patient-derived xenograft; assay: CTG-0241 patient-derived osteosarcoma xenograft model; format: in vivo, nu/nu mice
Description: (§1) Female nu/nu mice were implanted unilaterally on the left flank region with CTG-0241 tumor fragments harvested from host animals, each implanted from a specific passage lot. When tumors reached approximately 250-350 mm^3, animals were matched by tumor volume into treatment and control groups and dosing initiated (Day 0).
In FIG. 18B, female nu/nu mice were implanted unilaterally on the left flank region with CTG-0241 tumor fragments harvested from host animals, each implanted from a specific passage lot. When tumors reached approximately 250-350 mm^3, animals were matched by tumor volume into treatment and control groups and dosing initiated (Day 0). Dosing with isotype mAb or ADCs was performed IP at 6 mg/kg on a Q4Dx6 (one dose given every 4 days for a total of 6 doses), while cisplatin was dosed IP Q7Dx3 (once every 7 days for a total of 3 doses) at 7.5 mg/kg, doxorubicin was dosed intravenously (IV) once daily at 1 mg/kg for 5 days, gemcitabine was dosed IP Q3Dx4 (every 3 days for a total of 4 doses) at 80 mg/kg, and ifosfamide was dosed IP QDx3 (one dose given every day for a total of 3 doses) at 120 mg/kg.

[2] = system: CTG-1095 (human osteosarcoma) patient-derived xenograft; assay: CTG-1095 patient-derived osteosarcoma xenograft model; format: in vivo, NSG mice
Description: as §1, with “NSG” for “nu/nu”, “CTG-1095” for “CTG-0241”
In FIG. 18C, female NSG mice were implanted unilaterally on the left flank region with CTG-1095 tumor fragments harvested from host animals, each implanted from a specific passage lot. When tumors reached approximately 150-300 mm^3, animals were matched by tumor volume into treatment and control groups and dosing initiated (Day 0). Dosing with isotype mAb or ADCs was performed IP at 12 mg/kg Q4Dx6 (one dose given every 4 days for a total of 6 doses), while cisplatin was dosed intraperitoneally Q7Dx2 (once every 7 days for a total of 2 doses) at 7.5 mg/kg.
In FIG. 18D, female NSG mice were implanted unilaterally on the left flank region with CTG-1095 tumor fragments harvested from host animals, each implanted from a specific passage lot. When tumors reached approximately 200 mm^3, animals were matched by tumor volume into treatment and control groups and dosing initiated (Day 0). Dosing with isotype mAb or ADCs was performed IP at 6 mg/kg on a Q4Dx6 (one dose given every 4 days for a total of 6 doses), while gemcitabine was dosed IP Q3Dx4 (every 3 days for a total of 4 doses) at 80 mg/kg.

[3] = system: U118MG (glioblastoma) xenograft tumors; assay: U118MG glioblastoma xenograft model; format: in vivo, SCID mice
Procedure: For the experiments, ten million cells (U118MG) that were grown in vitro were inoculated subcutaneously per mouse into the right flank of female SCID mice. Tumors were size matched at˜100 mm^3, and dosed intraperitoneally (IP) Q6Dx2 (1 dose given every 6 days for a total of 2 doses) as shown in FIG. 14A. Measurements of the length (L) and width (W) of the tumors were taken via electronic caliper and the volume was calculated according to the following equation: V=L×W^2/2.
For the experiment, U118MG human glioblastoma cells were grown in vitro, and were inoculated subcutaneously (10 million cells per mouse) into the right flank of female SCID mice. Tumors were size matched at ˜150 mm^3, antibodies and immunoconjugates were administered IP Q4Dx6 (one dose give every 4 days for a total of 6 doses) at 10 or 6 mg/kg, respectively. At Day 165 post sizematch when tumors had regrown to ˜450 mm^3, animals were retreated with huM25-vcMMAE-DAR4 IP Q4Dx3 (one dose given every 4 days for a total of 3 doses) at 6 mg/kg.
Four preparations of huM25-vcMMAE that differed in their relative DAR profile (E2, E2/E4, E4 or DAR4) were tested for efficacy in U118MG tumors. […]
The potency of anti-huLRRC15 ADCs as compared to current standards of care was assessed in xenograft model U118MG (glioblastoma), and patient-derived xenograft models CTG-0241 osteosarcoma) and CTG-1095 (osteosarcoma). […]

[4] = system: RPMI-7951 (melanoma) cells; assay: In vitro cell killing assay (Cell TiterGlo), RPMI-7951; format: cell-based, human; conditions: RPMI-7951, 4 days
Procedure: (§2) In the in vitro cell killing assays, cells are seeded at 500-3000 cells per well into 96-well plates with varying concentrations ([…]) of antibodies and ADCs. The cells are incubated for 4 days in culture and then the percent cell viability relative to untreated cells is determined using Cell TiterGlo™ which measures ATP content within the treated cells.

[5] = system: G292 clone A141B1 (osteosarcoma) cells; assay: In vitro cell killing assay (Cell TiterGlo), G292 clone A141B1; format: cell-based, human; conditions: G292 clone A141B1, 4 days
Procedure: as §2

[6] = system: EBC-1 (squamous NSCLC) cells; assay: In vitro cell killing assay (Cell TiterGlo), huLRRC15-negative EBC-1; format: cell-based, human; conditions: huLRRC15-negative EBC-1, 4 days
Procedure: as §2

[7] = system: U118MG (glioblastoma) cells; assay: In vitro cell killing assay (Cell TiterGlo), U118MG; format: cell-based, human; conditions: 4 days, percent cell viability by Cell TiterGlo
Procedure: as §2
Preparation of the huM25-PBD-DAR2 ADC was accomplished according to the procedure described in Example 8.
FIG. 13E depicts the potent in vitro 4-day cell killing ability of anti-huLRRC15 ADC huM25-PBD-DAR2 as compared with the isotype control PBD DAR2 ADC in U118MG (glioblastoma) cells.

[8] = Rat tolerability experiment; format: in vivo, Sprague Dawley wild type rats; conditions: single IV dose at MMAE equivalent levels, FIG. 16A
Procedure: The safety profiles of E2, E4 and E2/E4 preparations of huM25-vcMMAE ADCs were assessed in a rat tolerability experiment (FIGS. 16A, 16B). For the assay, Sprague Dawley wild type rats were dosed with a single IV dose at MMAE equivalent levels of each antibody drug conjugate. […] Double the protein antibody dose was delivered with equal amounts of MMAE, and improved survival for E2 was seen over E4. Fewer deaths occurred in the animals dosed with E2 than E4 ADCs, and the deaths that did occur happened later on Day 8. Broad drug distribution DAR4 has an MTD of 20 mg/kg.

[9] = system: human BM-MSC (Lonza) mesenchymal stem cells; assay: In vitro cell killing, human BM-MSC treated with TGFβ; format: cell-based; conditions: 10 ng/mL TGFβ, same doses
[10] = gemcitabine alone, 80 mg/kg IP Q3Dx4, FIG. 18D
[11] = ADC alone, 6 mg/kg IP Q4Dx6, FIG. 18D

With `N.N.[Cl][Pt][Cl]` [cisplatin, reference compound] the TGImax ([1]; 7.5 mg/kg IP Q7Dx3, FIG. 18B) was 44% and the TGImax ([2]; 7.5 mg/kg IP Q7Dx2, FIG. 18C) was 70%.

Work on `COc1cccc2c1C(=O)c1c(O)c3c(c(O)c1C2=O)C[C@@](O)(C(=O)CO)C[C@@H]3O[C@H]1C[C@H](N)[C@H](O)[C@H](C)O1` [doxorubicin] yielded a TGImax ([1]; 1 mg/kg IV once daily for 5 days, FIG. 18B) of 27%.

`Nc1ccn([C@@H]2O[C@H](CO)[C@@H](O)C2(F)F)c(=O)n1` [gemcitabine, reference compound] showed a TGImax ([1]; 80 mg/kg IP Q3Dx4, FIG. 18B) of 64%, a TGD [2, 10] of 241% and a TGImax [2, 10] of 84%.

For `O=P1(NCCCl)OCCCN1CCCl` (stereo not shown) [ifosfamide], the TGImax ([1]; 120 mg/kg IP QDx3, FIG. 18B) was 10%.

With `Cn1nnc2c(C(N)=O)ncn2c1=O` [temozolomide, reference compound] the TGImax ([3]; 20 mg/kg orally daily for first 5 days of a 7-day cycle, two cycles, FIG. 18A) was 67%.

In the case of “huM25-vcMMAE-E2: huM25-vcMMAE ADC preparation enriched in DAR2 by hydrophobic interaction chromatography”, the “in vitro cell killing compared with isotype ADC” value [4] is reported as “superior to that seen with non-targeting isotype-vcMMAE ADCs”, the “in vitro cell killing compared with isotype ADC” value [5] is reported as “superior to that seen with non-targeting isotype-vcMMAE ADCs” and the “maximum tumor growth inhibition (TGImax)” value ([3]; MMAE-equivalent doses IP every seven days for three doses, FIG. 17) is reported as no less than 84%. The “in vitro cell killing” value [6] was “minimal cancer cell killing”, the TGImax ([1]; 6 mg/kg IP Q4Dx6, FIG. 14B/18B) was 91% and the “in vitro cell killing compared with isotype ADC” value [7] was “superior to that seen with non-targeting isotype-vcMMAE ADCs”. For the same molecule, the “death, percentage of animals” value [8] was 25%, the TGImax ([2]; 12 mg/kg IP Q4Dx6, FIG. 14C/18C) was 87% and the TGD [2, 11] was 193%. It also gave a TGImax [2, 11] of 75%.

B1: huAD208.4.1-PBD-DAR2: anti-LRRC15 PBD ADC of huAD208.4.1, cross-reactive to human and mouse LRRC15 (conjugate)
VH: EVQLVQSGAEVKKPGSSVKVSCKASGFTFTDYYIHWVKQAPGQGLEWIGLVYPYIGGTNYNQKFKGKATLTVDTSTTTAYMEMSSLRSEDTAVYYCARGDNKYDAMDYWGQGTTVTVSS
VL: DIVLTQSPDSLAVSLGERATINCRASQSVSTSSYSYMHWYQQKPGQPPKLLIKYASSLESGVPDRFSGSGSGTDFTLTISSLQAEDVAVYYCEQSWEIRTFGGGTKVEIK
For B1, the “in vitro cell killing effect compared with isotype-PBD-DAR2” value [9] was “higher cell killing effect than isotype-PBD-DAR2”.
